Assay results published in PubChem BioAssay AID1963962 (Molecular Pharmacology Branch, DTP, NCI, 2024).

System: 967376-340-R-J2-PDC multicell spheroid viability
Assay: Anticancer human tumor 967376-340-R-J2-PDC patient-derived colon adenocarcinoma cell line growth inhibition [PI3K]
Settings: for IC50: curve of first compound; for viability, T/C: stronger effect = lower value
Outline: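 Stroma-containing spheroids: tumor line, pooled-donor HUVEC, hMSC. Treatments: targeted agents with PI3K inhibitors. Dosing: clinically relevant, half-log spacing, 10 microM ceiling without known Cmax. Read-out: cell viability.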

[1] = second compound 0.0316 µM, first compound 0.0316 µM
[2] = second compound 0.0316 µM, first compound 0.1 µM
[3] = second compound 0.0316 µM, first compound 0.316 µM
[4] = second compound 0.0316 µM, first compound 1 µM
[5] = second compound 0.0316 µM, first compound 3.16 µM
[6] = second compound 0.0316 µM, first compound 10 µM
[7] = second compound 0.1 µM, first compound 0.0316 µM
[8] = second compound 0.1 µM, first compound 0.1 µM
[9] = second compound 0.1 µM, first compound 0.316 µM
[10] = second compound 0.1 µM, first compound 1 µM
[11] = second compound 0.1 µM, first compound 3.16 µM
[12] = second compound 0.1 µM, first compound 10 µM
[13] = second compound 0.316 µM, first compound 0.0316 µM
[14] = second compound 0.316 µM, first compound 0.1 µM
[15] = second compound 0.316 µM, first compound 0.316 µM
[16] = second compound 0.316 µM, first compound 1 µM
[17] = second compound 0.316 µM, first compound 3.16 µM
[18] = second compound 0.316 µM, first compound 10 µM
[19] = second compound 1 µM, first compound 0.0316 µM
[20] = second compound 1 µM, first compound 0.1 µM
[21] = second compound 1 µM, first compound 0.316 µM
[22] = second compound 1 µM, first compound 1 µM
[23] = second compound 1 µM, first compound 3.16 µM
[24] = second compound 1 µM, first compound 10 µM
[25] = second compound 3.16 µM, first compound 0.0316 µM
[26] = second compound 3.16 µM, first compound 0.1 µM
[27] = second compound 3.16 µM, first compound 0.316 µM
[28] = second compound 3.16 µM, first compound 1 µM
[29] = second compound 3.16 µM, first compound 3.16 µM
[30] = second compound 3.16 µM, first compound 10 µM
[31] = second compound 10 µM, first compound 0.0316 µM
[32] = second compound 10 µM, first compound 0.1 µM
[33] = second compound 10 µM, first compound 0.316 µM
[34] = second compound 10 µM, first compound 1 µM
[35] = second compound 10 µM, first compound 3.16 µM
[36] = second compound 10 µM, first compound 10 µM
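Further: spheroids exposed to agents for 7 days before read-out.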
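Wherever viability, T/C is given: luminescence used as surrogate of cell viability.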

C#Cc1c(F)ccc2cc(O)cc(-c3ncc4c(N5CC6CCC(C5)N6)nc(OCC56CCCN5CC(F)C6)nc4c3F)c12 (stereo not given) + CC(Nc1ncnc2nc[nH]c12)c1cc2cccc(Cl)c2c(=O)n1-c1ccccc1
IC50 (second compound 0.0316 µM): > 10 µM | IC50 (second compound 0.1 µM): > 10 µM | IC50 (second compound 0.316 µM): > 10 µM | IC50 (second compound 1 µM): > 10 µM | IC50 (second compound 3.16 µM): > 10 µM | IC50 (second compound 10 µM): > 10 µM | viability, T/C [1]: 103% | viability, T/C [2]: 113% | viability, T/C [3]: 94.2% | viability, T/C [4]: 85.8% | viability, T/C [5]: 85.5% | viability, T/C [6]: 53.8% | viability, T/C [7]: 99.8% | viability, T/C [8]: 110% | viability, T/C [9]: 80.5% | viability, T/C [10]: 97.5% | viability, T/C [11]: 77% | viability, T/C [12]: 88.9% | viability, T/C [13]: 104% | viability, T/C [14]: 97.2% | viability, T/C [15]: 99.7% | viability, T/C [16]: 90.6% | viability, T/C [17]: 99.5% | viability, T/C [18]: 78.8% | viability, T/C [19]: 96.5% | viability, T/C [20]: 110% | viability, T/C [21]: 109% | viability, T/C [22]: 93% | viability, T/C [23]: 72.8% | viability, T/C [24]: 70.8% | viability, T/C [25]: 106% | viability, T/C [26]: 92.4% | viability, T/C [27]: 94.6% | viability, T/C [28]: 71.2% | viability, T/C [29]: 78.3% | viability, T/C [30]: 71.8% | viability, T/C [31]: 84.1% | viability, T/C [32]: 76.8% | viability, T/C [33]: 78.8% | viability, T/C [34]: 61.6% | viability, T/C [35]: 59.5% | viability, T/C [36]: 61.5%

C=CC(=O)N1CCN(c2nc(=O)n(-c3c(C)ccnc3C(C)C)c3nc(-c4c(O)cccc4F)c(F)cc23)C(C)C1 (stereo not given) + CC(Nc1ncnc2nc[nH]c12)c1cc2cccc(Cl)c2c(=O)n1-c1ccccc1
IC50 (second compound 0.0316 µM): > 10 µM | IC50 (second compound 0.1 µM): > 10 µM | IC50 (second compound 0.316 µM): > 10 µM | IC50 (second compound 1 µM): > 10 µM | IC50 (second compound 3.16 µM): > 10 µM | IC50 (second compound 10 µM): > 10 µM | viability, T/C [1]: 95.8% | viability, T/C [2]: 104% | viability, T/C [3]: 99.1% | viability, T/C [4]: 102% | viability, T/C [5]: 96.6% | viability, T/C [6]: 108% | viability, T/C [7]: 123% | viability, T/C [8]: 108% | viability, T/C [9]: 97.7% | viability, T/C [10]: 94.2% | viability, T/C [11]: 106% | viability, T/C [12]: 104% | viability, T/C [13]: 105% | viability, T/C [14]: 107% | viability, T/C [15]: 107% | viability, T/C [16]: 104% | viability, T/C [17]: 86.7% | viability, T/C [18]: 94.8% | viability, T/C [19]: 107% | viability, T/C [20]: 98.3% | viability, T/C [21]: 100% | viability, T/C [22]: 97.8% | viability, T/C [23]: 105% | viability, T/C [24]: 76.3% | viability, T/C [25]: 79.7% | viability, T/C [26]: 91.6% | viability, T/C [27]: 81.2% | viability, T/C [28]: 98% | viability, T/C [29]: 96.2% | viability, T/C [30]: 86.6% | viability, T/C [31]: 75.7% | viability, T/C [32]: 83.9% | viability, T/C [33]: 75.4% | viability, T/C [34]: 78.7% | viability, T/C [35]: 94.4% | viability, T/C [36]: 91.9%

CC(Cn1ccc(-c2ccc(C#N)c(Cl)c2)n1)NC(=O)c1cc(C(C)O)[nH]n1 (stereo not given) + CC(Nc1ncnc2nc[nH]c12)c1cc2cccc(Cl)c2c(=O)n1-c1ccccc1
IC50 (second compound 0.0316 µM): > 10 µM | IC50 (second compound 0.1 µM): > 10 µM | IC50 (second compound 0.316 µM): > 10 µM | IC50 (second compound 1 µM): > 10 µM | IC50 (second compound 3.16 µM): > 10 µM | IC50 (second compound 10 µM): > 10 µM | viability, T/C [1]: 95.7% | viability, T/C [2]: 87.5% | viability, T/C [3]: 89.4% | viability, T/C [4]: 110% | viability, T/C [5]: 87.5% | viability, T/C [6]: 91.8% | viability, T/C [7]: 117% | viability, T/C [8]: 102% | viability, T/C [9]: 104% | viability, T/C [10]: 94.3% | viability, T/C [11]: 81.8% | viability, T/C [12]: 85.6% | viability, T/C [13]: 112% | viability, T/C [14]: 97.3% | viability, T/C [15]: 86.7% | viability, T/C [16]: 87.5% | viability, T/C [17]: 89% | viability, T/C [18]: 78.6% | viability, T/C [19]: 107% | viability, T/C [20]: 83.3% | viability, T/C [21]: 91.9% | viability, T/C [22]: 83.8% | viability, T/C [23]: 83.9% | viability, T/C [24]: 82.4% | viability, T/C [25]: 95.4% | viability, T/C [26]: 103% | viability, T/C [27]: 91.5% | viability, T/C [28]: 87.5% | viability, T/C [29]: 69.2% | viability, T/C [30]: 92.5% | viability, T/C [31]: 91.5% | viability, T/C [32]: 88.6% | viability, T/C [33]: 90% | viability, T/C [34]: 103% | viability, T/C [35]: 83.7% | viability, T/C [36]: 80.7%

CC1(C)CCC(Nc2ncc(C(F)(F)F)c(-c3c[nH]c4c(P(C)(C)=O)c(C#N)ccc34)n2)CN1 (stereo not given) + CC(Nc1ncnc2nc[nH]c12)c1cc2cccc(Cl)c2c(=O)n1-c1ccccc1
IC50 (second compound 0.0316 µM): > 10 µM | IC50 (second compound 0.1 µM): > 10 µM | IC50 (second compound 0.316 µM): > 10 µM | IC50 (second compound 1 µM): > 10 µM | IC50 (second compound 3.16 µM): > 10 µM | IC50 (second compound 10 µM): 4.79 µM | viability, T/C [1]: 103% | viability, T/C [2]: 90.2% | viability, T/C [3]: 80.3% | viability, T/C [4]: 69.2% | viability, T/C [5]: 68.3% | viability, T/C [6]: 55.4% | viability, T/C [7]: 108% | viability, T/C [8]: 92.8% | viability, T/C [9]: 79.6% | viability, T/C [10]: 75.2% | viability, T/C [11]: 76.6% | viability, T/C [12]: 55.7% | viability, T/C [13]: 83.5% | viability, T/C [14]: 91.6% | viability, T/C [15]: 93% | viability, T/C [16]: 60.9% | viability, T/C [17]: 71.4% | viability, T/C [18]: 64.3% | viability, T/C [19]: 90.6% | viability, T/C [20]: 93.5% | viability, T/C [21]: 64.1% | viability, T/C [22]: 78.1% | viability, T/C [23]: 68.2% | viability, T/C [24]: 63.9% | viability, T/C [25]: 84.6% | viability, T/C [26]: 73.6% | viability, T/C [27]: 85% | viability, T/C [28]: 73.4% | viability, T/C [29]: 73% | viability, T/C [30]: 62.3% | viability, T/C [31]: 72.3% | viability, T/C [32]: 73.8% | viability, T/C [33]: 70.2% | viability, T/C [34]: 63.5% | viability, T/C [35]: 56.8% | viability, T/C [36]: 39.4%

Cn1nccc1Nc1nccc(-c2ccn(C(CO)c3ccc(Cl)c(F)c3)c(=O)c2)n1 (stereo not given) + CC(Nc1ncnc2nc[nH]c12)c1cc2cccc(Cl)c2c(=O)n1-c1ccccc1
IC50 (second compound 0.0316 µM): > 10 µM | IC50 (second compound 0.1 µM): > 10 µM | IC50 (second compound 0.316 µM): > 10 µM | IC50 (second compound 1 µM): > 10 µM | IC50 (second compound 3.16 µM): > 10 µM | IC50 (second compound 10 µM): > 10 µM | viability, T/C [1]: 97.2% | viability, T/C [2]: 115% | viability, T/C [3]: 101% | viability, T/C [4]: 102% | viability, T/C [5]: 101% | viability, T/C [6]: 114% | viability, T/C [7]: 103% | viability, T/C [8]: 105% | viability, T/C [9]: 95.9% | viability, T/C [10]: 128% | viability, T/C [11]: 128% | viability, T/C [12]: 106% | viability, T/C [13]: 107% | viability, T/C [14]: 115% | viability, T/C [15]: 114% | viability, T/C [16]: 76.1% | viability, T/C [17]: 104% | viability, T/C [18]: 110% | viability, T/C [19]: 96.2% | viability, T/C [20]: 93.3% | viability, T/C [21]: 87.8% | viability, T/C [22]: 89% | viability, T/C [23]: 99% | viability, T/C [24]: 96.3% | viability, T/C [25]: 87.5% | viability, T/C [26]: 85.3% | viability, T/C [27]: 80.1% | viability, T/C [28]: 89.3% | viability, T/C [29]: 99.7% | viability, T/C [30]: 81.4% | viability, T/C [31]: 95.7% | viability, T/C [32]: 73.4% | viability, T/C [33]: 86.3% | viability, T/C [34]: 86.7% | viability, T/C [35]: 76.2% | viability, T/C [36]: 75.3%
